Laboratory results from patent EP0408973B1, “Antiherpes pentapeptides” (BIO-MEGA/BOEHRINGER INGELHEIM RESEARCH INC., priority 1989, dated 1991).
Starred links: 1 amine or outer side, 2 acyl side, 3 side chain; linkers in the order of their positions; H or OH if unused. Non-standard residues stand in square brackets, D forms with d. Residues, ends and D or L forms follow the SMILES beside them. *: point of attachment. Ala(1H-tetrazol-5-yl) = N[C@@H](Cc1nnn[nH]1)C(=O)O; X1 = CC(C)[C@@H](C(=O)[*:2])N(CCc1ccccc1)[*:1]; Benzoyl(2-Ph) = O=C(c1ccccc1-c1ccccc1)*; Desaminotyrosyl = O=C(CCc1ccc(O)cc1)*; Butanoyl(4-Ph) = O=C(CCCc1ccccc1)*; Hydrocinnamoyl = O=C(CCc1ccccc1)*; Pentanoyl(4-Me) = CC(C)CCC(=O)*; X3 = CC(C)C[C@H](N*)c1nnn[nH]1; X2 = O=C(c1ccccc1Cc1ccccc1)*; NMeV = CN[C@H](C(=O)O)C(C)C

Target: HSV-1 ribonucleotide reductase (Human herpesvirus 1, UniProt P08543)
Sequence (P08543 whole entry): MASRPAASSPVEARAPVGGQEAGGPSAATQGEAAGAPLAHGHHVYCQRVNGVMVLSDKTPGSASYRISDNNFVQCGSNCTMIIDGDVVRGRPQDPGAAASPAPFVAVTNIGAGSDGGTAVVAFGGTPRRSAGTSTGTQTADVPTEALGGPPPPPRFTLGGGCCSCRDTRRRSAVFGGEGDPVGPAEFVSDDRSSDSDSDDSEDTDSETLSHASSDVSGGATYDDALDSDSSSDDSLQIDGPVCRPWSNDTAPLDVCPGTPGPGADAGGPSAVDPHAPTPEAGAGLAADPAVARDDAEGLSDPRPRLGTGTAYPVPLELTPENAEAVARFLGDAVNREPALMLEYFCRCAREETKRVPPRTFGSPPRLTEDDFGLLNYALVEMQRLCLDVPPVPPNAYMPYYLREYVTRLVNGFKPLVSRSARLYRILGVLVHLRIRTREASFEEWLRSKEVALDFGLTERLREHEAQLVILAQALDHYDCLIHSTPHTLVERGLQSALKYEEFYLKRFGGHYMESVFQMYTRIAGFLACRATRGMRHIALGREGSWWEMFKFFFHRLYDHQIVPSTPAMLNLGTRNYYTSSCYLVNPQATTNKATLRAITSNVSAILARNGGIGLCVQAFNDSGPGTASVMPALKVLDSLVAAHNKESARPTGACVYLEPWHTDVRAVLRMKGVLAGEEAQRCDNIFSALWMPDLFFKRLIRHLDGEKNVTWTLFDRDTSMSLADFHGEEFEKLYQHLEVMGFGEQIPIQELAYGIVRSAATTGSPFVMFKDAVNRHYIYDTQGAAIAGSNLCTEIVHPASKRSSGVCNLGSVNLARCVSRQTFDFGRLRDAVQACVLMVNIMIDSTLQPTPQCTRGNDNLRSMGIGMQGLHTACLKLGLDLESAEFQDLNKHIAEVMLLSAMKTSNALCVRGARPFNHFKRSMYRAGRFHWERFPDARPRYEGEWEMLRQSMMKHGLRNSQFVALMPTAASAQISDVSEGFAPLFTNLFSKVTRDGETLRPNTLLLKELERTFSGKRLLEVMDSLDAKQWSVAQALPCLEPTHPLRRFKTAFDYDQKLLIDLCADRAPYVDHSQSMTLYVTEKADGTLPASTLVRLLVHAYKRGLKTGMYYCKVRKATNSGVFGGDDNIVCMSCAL
Test: biochemical
Source text: Inhibition of Herpes Simplex Virus (HSV, type 1) Ribonucleotide Reductase
• a) Preparation of Enzyme HSV-1 ribonucleotide reductase (partially purified) was obtained from quiescent BHK-21/C13 cells infected with strain F HSV-1 virus at 10 plaque forming units/cell as described by E.A. Cohen et al., J. Gen. […] The number of units of the enzyme preparation used in each assay was constant, based on the specific activity of the enzyme preparation.

SMILES	IC50 [µM]
CC[C@H](C)[C@H](NC(=O)[C@H](C(C)C)N(C)C(=O)c1ccccc1Cc1ccccc1)C(=O)N[C@@H](CC(N)=O)C(=O)N[C@@H](CC(=O)O)C(=O)N[C@@H](CC(C)C)C(=O)O (X2-[NMeV]INDL-OH)	5.5
CC[C@H](C)[C@H](NC(=O)[C@H](C(C)C)N(C)C(=O)c1ccccc1-c1ccccc1)C(=O)N[C@@H](CC(N)=O)C(=O)N[C@@H](CC(=O)O)C(=O)N[C@@H](CC(C)C)C(=O)O ({Benzoyl(2-Ph)}-[NMeV]INDL-OH)	2.5
CC[C@H](C)[C@H](NC(=O)[C@H](C(C)C)N(C)C(=O)CCC(C)C)C(=O)N[C@@H](CC(N)=O)C(=O)N[C@@H](CC(=O)O)C(=O)N[C@@H](CC(C)C)C(=O)O [(CH3)2CHCH2CH2CO / CH3 / CONH2 / COOH] ({Pentanoyl(4-Me)}-[NMeV]INDL-OH)	7.6
CC[C@H](C)[C@H](NC(=O)[C@H](C(C)C)N(CCc1ccccc1)C(C)=O)C(=O)N[C@@H](CC(N)=O)C(=O)N[C@@H](CC(=O)O)C(=O)N[C@@H](CC(C)C)C(=O)O [CH3CO / PhCH2CH2 / CONH2 / COOH] (Ac-[X1]INDL-OH)	17
CC[C@H](C)[C@H](NC(=O)[C@H](C(C)C)N(C)C(=O)CCc1ccc(O)cc1)C(=O)N[C@@H](CC(N)=O)C(=O)N[C@@H](CC(=O)O)C(=O)N[C@@H](CC(C)C)C(=O)O [DAT / CH3 / CONH2 / COOH, DAT-N-Me-Val-Ile-Asn-Asp-Leu-OH] (Desaminotyrosyl-[NMeV]INDL-OH)	6
CC[C@H](C)[C@H](NC(=O)[C@H](C(C)C)N(C)C(=O)CCCc1ccccc1)C(=O)N[C@@H](CC(N)=O)C(=O)N[C@@H](CC(=O)O)C(=O)N[C@@H](CC(C)C)C(=O)O [PhCH2CH2CH2CO / CH3 / CONH2 / COOH] ({Butanoyl(4-Ph)}-[NMeV]INDL-OH)	6.2
CC[C@H](C)[C@H](NC(=O)[C@H](C(C)C)N(C)C(=O)CCc1ccccc1)C(=O)N[C@@H](Cc1nnn[nH]1)C(=O)N[C@@H](CC(=O)O)C(=O)N[C@@H](CC(C)C)C(=O)O [PhCH2CH2CO / CH3 / 5-1H-t / COOH, PhCH2CH2CO-N-Me-Val-Ile-NHCH[CH2-5-1H-tetrazole]CO-Asp-Leu-OH] (Hydrocinnamoyl-[NMeV]I[Ala(1H-tetrazol-5-yl)]DL-OH)	2
CC[C@H](C)[C@H](NC(=O)[C@H](C(C)C)N(C)C(=O)CCc1ccccc1)C(=O)N[C@@H](CC(N)=O)C(=O)N[C@@H](CC(=O)O)C(=O)N[C@@H](CC(C)C)c1nnn[nH]1 [PhCH2CH2CO / CH3 / CONH2 / 5-1H-t, PhCH,CH,CO-N-Me-Val-Ile-Asn-Asp-NHCH[CH2-CH(CH3)2]-5-1H-tetrazole] (Hydrocinnamoyl-[NMeV]IND-X3)	3.8
